Laboratory results as given in US6469061B1, “Jasmonate pharmaceutical composition for treatment of cancer” (priority 2001, dated 2002).
Several values for one entry are separate records, joined by “and”; a condition that tells them apart may be missing. Equal values may be shown once.

Tests used:
SK28 cells = test: Trypan blue exclusion (cell death versus suppression of proliferation), SK28; assay type: cell-based, human
Excerpt: (§1) Since the same number of cells was aliquoted into each well initially, decreased optical density as measured in wells containing treated cells (above) reflects cellular death and/or decrease in the rate of proliferation. To distinguish between these two possibilities we employed an additional cytotoxicity assay which detects cell death by lack of trypan blue exclusion.

[1] = system: LNCaP androgen-responsive human prostate adenocarcinoma cell line; test: CellTiter 96 Aqueous Non-Radioactive Cell Proliferation Assay (MTS cytotoxicity), LNCaP; assay type: cell-based; settings: LNCaP cells, 0.5-3 mM tested, 24 hours
Description: (§2) All cell lines were purchased from ATCC (Rockville, Md.). […] JA and MJ were dissolved in ethanol.

LNCaP cells = test: Trypan blue exclusion (cell death versus suppression of proliferation), LNCaP; assay type: cell-based, human
Excerpt: as §1

Molt-4 cells [2] = test: Fluorescence microscopy (DAPI) of nuclear morphology in Molt-4 cells; assay type: cell-based, human
Description: To confirm this fact, Molt-4 cells were treated with JA (2 mM) and MJ (0.5 mM) for 14 hours, and analyzed by fluorescence microscopy in order to detect essential morphological characteristics of apoptosis such as condensation and fragmentation of chromatin.
Referring to FIG. 3, fluorescence microscopy pictures are shown depicting changes in cellular morphology within the nuclei of Molt-4 cells, after treatment with plant stress hormones JA or MJ. 5×10^5 cells/sample were harvested, then fixated by addition of a solution of phosphate-buffered saline (PBS) containing [3% paraformaldehyde and 0.1% Triton X-100], for one hour. Cells were stained for 10 minutes with DAPI (1 μg/ml). Nuclei were analyzed by fluorescence microscopy, (using a fluorescence microscope model. A×70 TRF, made by Olympus Optical, Japan) at a magnification of 1:400. Characteristic apoptotic nuclei are marked with arrows.

[3] = system: Caspase-3 activity in Molt-4 cells; test: Caspase-3 (CPP32) protease assay in treated Molt-4 cells; assay type: cell-based, human; settings: for Caspase-3 activity: all concentrations and times (2, 4, 14 hours), P<0.05
Description: Elevated levels of Caspase-3 are a specific marker of the apoptosis process (Porter and Janicke, Cell Death Differ., 6, 99-104, 1999). In order to definitively determine that the cause of cell death was apoptosis, the level of Caspase-3 activity was measured in cells after treatment with JA and MJ. […] Briefly, 2×10^6 cells were lysed and resuspended in 100 μL of reaction buffer containing a fluorogenic Caspase-3 (CPP32) substrate Ac-DEVD-AMC. Reactions were incubated at 37° C. for 2 hours and samples were assayed at excitation wavelength of 360 nm and emission wavelength of 460 nm, in the FL600 Microplate Fluorescence Reader (Bio-Tek Instruments, Winooski, Vt., USA).

[4] = system: normal lymphocytes from peripheral blood of healthy donors; test: CellTiter 96 cytotoxicity on normal lymphocytes stimulated by TPA/PHA; assay type: cell-based, human; settings: 1 mM or 3 mM, 24 hours
Excerpt: Normal lymphocytes were separated from peripheral blood, as follows: Mononuclear cells (MNC) from venous blood of healthy donors were collected by Ficoll-Hypaque (Phamacia Fine Chemicals, Uppsala, Sweden) density gradient centrifugation. The resultant mononuclear cell preparation was allowed to adhere to plastic dishes to remove contaminant macrophages. The non-adherent peripheral blood lymphocytes were selected for use.

[5] = system: Molt-4 human T lymphoblastic leukemia cell line; test: CellTiter 96 Aqueous Non-Radioactive Cell Proliferation Assay (MTS cytotoxicity), Molt-4; settings: Molt-4 cells, 24 hours
Description: All cell lines were purchased from ATCC (Rockville, Md.). All reagents were purchased from Sigma Chemicals (St. Louis, Mo.) unless otherwise stated. JA and MJ were dissolved in ethanol.
LNCaP, MCF7 and SK-28 cells (at 4×10^3/well) and Molt-4 cells (at 1.5×10^4/well) were seeded in 96-well plates and allowed to adhere overnight. Plant stress hormone at increasing concentrations was added as indicated below, and toxicity was measured after 24 hours using the CellTiter 96 Aqueous Non-Radioactive Cell Proliferation Assay (Promega, Madison, Wis.); an assay in which viable cells produce a colored product (for details on the protocol of this assay, see below). This assay is quantitative, as the amount of color produced is read using an ELISA reader.
Each cell line was incubated with each of these hormones at a concentration ranging from 0.5-3 mM for 24 hours, after which cytotoxicity was measured. The statistical significance of the results was determined (where appropriate) by two-tailed student's t-test, n=3.
This allowed for development of a color reaction in which dehydrogenases reduce the MTS in metabolically active cells. Since the cells were not washed before the addition of MTS, there were no potentially loosely adherent or non-adherent cells that could have been problematic. Soluble MTS formazan product was measured at a wavelength of 490 nm using a CERES 900 HDI ELISA reader (Bio-Tek Instruments, Inc, Highland Park, Vt.). Optical density is directly proportional to the number of living cells in culture. Cytotoxicity (%) was calculated in the following way: [(OD of control cells−OD of drug-treated cells)/OD of control cells]×100.
Normal lymphocytes and Molt-4 cells were seeded (at 1.5×10^4/well) in 96-well plates.
Jasmonates or salicylic acid were added at a concentration of 1 mM or 3 mM, and cells were incubated for 24 hours. Optical density representing viable cells was determined by the CellTiter 96 Aqueous Non-Radioactive Cell Proliferation Assay.

[6] = system: SK-28 human melanoma cells; test: CellTiter 96 Aqueous Non-Radioactive Cell Proliferation Assay (MTS cytotoxicity), SK-28; assay type: cell-based; settings: SK28 cells, 0.5-3 mM tested, 24 hours
Description: as §2

[7] = system: Molt-4, SK-28, LNCaP and MCF7 cells; test: CellTiter 96 cytotoxicity across the four transformed cell lines; assay type: cell-based, human; settings: 0.5-3 mM, 24 hours
Description: as §2
Results are presented as means ± standard deviation.

[8] = system: MCF7 human breast carcinoma cell line; test: CellTiter 96 Aqueous Non-Radioactive Cell Proliferation Assay (MTS cytotoxicity), MCF7; assay type: cell-based; settings: MCF7 cells, 0.5-3 mM tested, 24 hours
Description: as §2

MCF7 cells = test: Trypan blue exclusion (cell death versus suppression of proliferation), MCF7; assay type: cell-based, human
Excerpt: as §1

Molt-4 cells [9] = test: Trypan blue exclusion (cell death versus suppression of proliferation), Molt-4; assay type: cell-based, human
Excerpt: as §1

EL-4 lymphoma cells = test: EL-4 lymphoma model in mice, survival; assay type: in vivo, mice (strain C57BL)
Description: Syngeneic lymphoma cells were injected into a test group and a control group of mice (strain C57BL). The injections were administered either sub-cutaneously, or intra-peritoneally. Methyl jasmonate was administered orally, by injection directly into the resultant tumor or into the peritoneum, and the effect on tumor progression and on the rate of survival, were analyzed.
400,000 EL-4 lymphoma cells were injected intra-peritoneally into 20 test mice, or 19 control mice, of the C57BL strain.
Preliminary experiments had shown that methyl jasmonate at a dosage of 236-472 mg/kg. body weight was appropriate for prevention of tumoral growth. Therefore, methyl jasmonate was dissolved in a lipid carrier (0.4% Lipofundin, manufactured by B. Brown, Melsunger, Germany) and administered orally at a dosage of 236 mg/kg body weight. Administration was daily, via the drinking water, beginning with the day of injection of the lymphoma cells.
19 control mice received the lipid carrier only (0.4% Lipofundin), with no methyl jasmonate dissolved within.
The survival time of each group of mice was measured (in days), and analyzed.
Each of these tests weighs numerically the importance of a death within one of the two groups of mice, on a given day, compared to the number of surviving mice in the whole.

| Compound | Kind of damage (cell death or inhibition of cell proliferation) (SK28 cells) | Concentrations at which cytotoxicity was significant, P<0.05 [1] [µM] | Kind of damage (cell death or inhibition of cell proliferation) (LNCaP cells) | Nuclear morphology (apoptotic changes) (Molt-4 cells [2]; 2 mM for 14 hours) | Caspase-3 activity [3] | Level of Caspase-3 ([3]; incubation for 2 hours) | Cytotoxicity in normal lymphocytes [4] | Cytotoxicity ([5]; 3 mM) [%] | Concentrations at which cytotoxicity was significant, P<0.05 ([5]; 0.5-3 mM tested) | Concentrations at which cytotoxicity was significant, P<0.05 [6] [µM] | Order of sensitivity of the cell lines [7] | Concentrations at which cytotoxicity was significant, P<0.05 [8] [µM] | Kind of damage (cell death or inhibition of cell proliferation) (MCF7 cells) | Kind of damage (cell death or inhibition of cell proliferation) (Molt-4 cells [9]) | Nuclear morphology (apoptotic changes) (Molt-4 cells [2]; 0.5 mM for 14 hours) | Cytotoxicity ([5]; 0.5 mM) | Concentrations at which cytotoxicity was significant, P<0.01 ([5]; 0.5-3 mM tested) | Plateau of survival (cumulative percentage of survival) (EL-4 lymphoma cells; C57BL mice, EL-4 cells i.p., 236 mg/kg orally daily via drinking water, reached on the 33rd day, control 20%, p=0.01492 Log-Rank, p=0.00953 Cox-Mantel) [%] | Dosage appropriate for prevention of tumoral growth (EL-4 lymphoma cells; preliminary experiments in mice) | Concentrations at which cytotoxicity was significant, P<0.01 [8] [µM] |
| --- | --- | --- | --- | --- | --- | --- | --- | --- | --- | --- | --- | --- | --- | --- | --- | --- | --- | --- | --- | --- |
| CC/C=C\C[C@H]1C(=O)CC[C@@H]1CC(=O)O [JA, Jasmonic acid] | inhibition of cell proliferation | ≥ 2000 | inhibition of cell proliferation | induced condensation and fragmentation of chromatin | increased Caspase-3 activity significantly | didn't induce an elevation | do not harm normal cells | 90 | ≥ 1000 µM | ≥ 2000 | Molt-4>SK-28>LNCaP>MCF7 | 3000 | inhibition of cell proliferation | cell death | – | – | – | – | – | – |
| CC/C=C\CC1C(=O)CCC1CC(=O)OC (stereo not shown) [MJ, methyl jasmonate] | death | ≥ 2000 | death | – | increased Caspase-3 activity significantly | – | do not harm normal cells | – | – | ≥ 2000 | Molt-4>LNCaP>SK28>MCF7 | – | death | death | completely destroyed nuclear morphology in almost all cells | 87.52% and 90% | all concentrations | 50 | 236-472 mg/kg. body weight | 3000 |
| O=C([O-])c1ccccc1O.[Na+] [SA, Sodium salicylate, reference compound] | inhibition of cell proliferation | – | inhibition of cell proliferation | – | – | – | – | – | all concentrations | – | – | – | inhibition of cell proliferation | inhibition of cell proliferation | – | – | – | – | – | – |
